Key:
[1] = target: T1, ABL1(M351T) (Homo sapiens, UniProt P00519, M351T); test: KinomeScan; type: binding; details: read-out: % Ctrl @ 10000 nM
T1 construct: host or cells: E. coli (BL21-derived), T7 phage lysate
Method: (§1) Kinase assays: Assays were performed as described in Fabian et al. (2005) Nature Biotechnology, vol. 23, p. 329. Kinase-tagged T7 phage strains were grown in parallel in 24 or 96-well blocks in an E. coli host derived from the BL21 strain. E. coli were grown to log-phase and infected with T7 phage from a frozen stock (multiplicity of infection ˜0.1) and incubated with shaking at 32° C. until lysis (−90 minutes). The lysates were centrifuged and filtered to remove cell debris. […] The liganded beads were blocked with excess biotin and washed with blocking buffer (SeaBlock (Pierce), 1% BSA, 0.05% Tween 20, 1 mM DTT) to remove unbound ligand and to reduce non-specific phage binding.
(§2) Test compounds were prepared as 40× stocks in DMSO and diluted into the aqueous environment. 2.5% DMSO was added to control assays lacking a test compound. All reactions were performed in polystyrene 96-well plates that had been pretreated with blocking buffer in a final volume of 0.04 ml. […] The phage titer in the eluates was measured by quantitative PCR.

[2] = target: T2, AMPK-alpha2 (Homo sapiens, UniProt P54646); test: KinomeScan; type: binding; details: read-out: % Ctrl @ 10000 nM
T2 construct: host or cells: E. coli (BL21-derived), T7 phage lysate
Method: as §1, §2

[3] = target: T3, AURKA (Homo sapiens, UniProt O14965); test: KinomeScan; type: binding; details: read-out: % Ctrl @ 10000 nM
T3 construct: host or cells: E. coli host derived from BL21
T3 sequence (O14965 whole entry): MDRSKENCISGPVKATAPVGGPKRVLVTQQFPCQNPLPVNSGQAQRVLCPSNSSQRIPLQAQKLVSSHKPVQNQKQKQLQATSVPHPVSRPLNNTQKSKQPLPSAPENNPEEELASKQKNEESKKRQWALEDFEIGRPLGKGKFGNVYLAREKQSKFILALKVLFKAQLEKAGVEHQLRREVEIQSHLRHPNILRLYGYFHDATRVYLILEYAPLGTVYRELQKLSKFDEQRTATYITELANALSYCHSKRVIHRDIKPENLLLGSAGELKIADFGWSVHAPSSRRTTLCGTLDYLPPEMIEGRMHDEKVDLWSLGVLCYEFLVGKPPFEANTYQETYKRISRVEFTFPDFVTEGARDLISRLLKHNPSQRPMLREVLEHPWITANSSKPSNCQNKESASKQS
Method: as §1, §2

[4] = target: T4, BLK (Homo sapiens, UniProt P51451); test: KinomeScan; type: binding; details: read-out: % Ctrl @ 10000 nM
T4 construct: host or cells: E. coli host derived from BL21
Method: as §1, §2

[5] = target: T5, BMPR1A (Homo sapiens, UniProt P36894); test: KinomeScan; type: binding; details: read-out: % Ctrl @ 10000 nM
T5 construct: host or cells: E. coli host derived from BL21
T5 sequence (P36894 24-532): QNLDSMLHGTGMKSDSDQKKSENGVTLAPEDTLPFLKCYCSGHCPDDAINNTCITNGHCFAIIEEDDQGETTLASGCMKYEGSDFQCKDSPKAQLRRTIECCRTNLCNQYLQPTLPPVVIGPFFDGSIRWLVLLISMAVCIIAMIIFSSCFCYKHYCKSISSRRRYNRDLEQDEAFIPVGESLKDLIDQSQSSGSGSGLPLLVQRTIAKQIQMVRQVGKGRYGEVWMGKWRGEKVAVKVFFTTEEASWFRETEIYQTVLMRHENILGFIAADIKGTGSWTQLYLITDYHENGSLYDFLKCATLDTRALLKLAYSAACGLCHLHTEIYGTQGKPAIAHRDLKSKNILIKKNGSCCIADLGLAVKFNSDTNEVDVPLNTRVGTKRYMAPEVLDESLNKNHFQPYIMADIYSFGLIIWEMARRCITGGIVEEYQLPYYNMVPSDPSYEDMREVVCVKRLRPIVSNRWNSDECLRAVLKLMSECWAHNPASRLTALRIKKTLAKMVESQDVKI
Method: as §1, §2

[6] = target: T6, BMPR1B (Homo sapiens, UniProt O00238); test: KinomeScan; type: binding; details: read-out: % Ctrl @ 10000 nM
T6 construct: host or cells: E. coli host derived from BL21
Method: as §1, §2

[7] = target: T7, CSNK2A1 (Homo sapiens, UniProt P68400); test: KinomeScan; type: binding; details: read-out: % Ctrl @ 10000 nM
T7 construct: purchased Ambit Biosciences Corp (KinomeScan); host or cells: T7 phage in E. coli host derived from BL21
T7 sequence (P68400 whole entry): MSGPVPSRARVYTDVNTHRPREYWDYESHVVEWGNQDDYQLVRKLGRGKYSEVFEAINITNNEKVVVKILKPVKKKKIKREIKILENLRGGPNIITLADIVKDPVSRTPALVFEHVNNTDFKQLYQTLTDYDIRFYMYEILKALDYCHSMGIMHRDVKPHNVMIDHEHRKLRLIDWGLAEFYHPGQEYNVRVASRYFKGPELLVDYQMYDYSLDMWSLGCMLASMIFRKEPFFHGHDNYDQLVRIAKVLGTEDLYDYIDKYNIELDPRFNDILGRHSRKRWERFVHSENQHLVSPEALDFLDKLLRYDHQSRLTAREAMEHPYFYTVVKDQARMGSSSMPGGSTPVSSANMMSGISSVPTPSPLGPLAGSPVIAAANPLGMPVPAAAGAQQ
Method: as §1, §2

[8] = target: T8, DAPK3 (Homo sapiens, UniProt O43293); test: KinomeScan; type: binding; details: read-out: % Ctrl @ 10000 nM
T8 construct: purchased Ambit Biosciences Corp (KinomeScan); host or cells: T7 phage in E. coli host derived from BL21
T8 sequence (O43293 whole entry): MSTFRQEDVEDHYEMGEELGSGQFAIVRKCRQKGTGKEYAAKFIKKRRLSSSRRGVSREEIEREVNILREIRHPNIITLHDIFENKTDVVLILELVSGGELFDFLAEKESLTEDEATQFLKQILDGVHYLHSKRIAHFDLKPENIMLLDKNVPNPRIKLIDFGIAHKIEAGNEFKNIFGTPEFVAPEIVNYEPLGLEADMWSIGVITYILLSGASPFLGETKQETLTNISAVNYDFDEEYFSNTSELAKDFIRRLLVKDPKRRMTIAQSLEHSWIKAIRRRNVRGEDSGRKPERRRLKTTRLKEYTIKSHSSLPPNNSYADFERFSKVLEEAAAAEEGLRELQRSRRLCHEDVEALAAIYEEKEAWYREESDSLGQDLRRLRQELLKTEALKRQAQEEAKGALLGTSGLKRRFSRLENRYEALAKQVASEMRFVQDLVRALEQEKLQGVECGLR
Method: as §1, §2

[9] = target: T9, FLT3(K663Q) (Homo sapiens, UniProt P36888, K663Q); test: KinomeScan; type: binding; details: read-out: % Ctrl @ 10000 nM
T9 construct: host or cells: T7 phage in E. coli host derived from BL21
Method: as §1, §2

[10] = target: T10, GAK (Homo sapiens, UniProt O14976); test: KinomeScan; type: binding; details: read-out: % Ctrl @ 10000 nM
T10 construct: host or cells: T7 phage in E. coli host derived from BL21
Method: as §1, §2

[11] = target: T11, GCN2(Kin.Dom.2.S808G) (Homo sapiens, UniProt Q9P2K8, S808G); test: KinomeScan; type: binding; details: read-out: % Ctrl @ 10000 nM
T11 construct: GCN2(KIN.DOM.2, S808G); host or cells: T7 phage in E. coli host derived from BL21
T11 sequence (Q9P2K8 590-1001 S808G limits assumed): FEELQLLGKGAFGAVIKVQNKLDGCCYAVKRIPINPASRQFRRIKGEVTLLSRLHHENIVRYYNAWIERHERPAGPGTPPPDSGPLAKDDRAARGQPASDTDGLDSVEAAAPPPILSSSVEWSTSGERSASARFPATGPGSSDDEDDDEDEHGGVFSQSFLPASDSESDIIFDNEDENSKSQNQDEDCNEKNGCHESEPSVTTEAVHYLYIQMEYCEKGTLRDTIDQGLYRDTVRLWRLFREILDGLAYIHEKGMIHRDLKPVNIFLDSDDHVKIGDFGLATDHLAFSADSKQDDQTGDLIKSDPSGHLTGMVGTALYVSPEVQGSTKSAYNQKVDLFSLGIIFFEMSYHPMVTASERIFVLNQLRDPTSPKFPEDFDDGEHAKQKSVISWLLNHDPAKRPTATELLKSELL
Method: as §1, §2

[12] = target: T12, IKK-alpha (Homo sapiens, UniProt O15111); test: KinomeScan; type: binding; details: read-out: % Ctrl @ 10000 nM
T12 construct: host or cells: T7 phage grown in E. coli host derived from BL21
T12 sequence (O15111 whole entry): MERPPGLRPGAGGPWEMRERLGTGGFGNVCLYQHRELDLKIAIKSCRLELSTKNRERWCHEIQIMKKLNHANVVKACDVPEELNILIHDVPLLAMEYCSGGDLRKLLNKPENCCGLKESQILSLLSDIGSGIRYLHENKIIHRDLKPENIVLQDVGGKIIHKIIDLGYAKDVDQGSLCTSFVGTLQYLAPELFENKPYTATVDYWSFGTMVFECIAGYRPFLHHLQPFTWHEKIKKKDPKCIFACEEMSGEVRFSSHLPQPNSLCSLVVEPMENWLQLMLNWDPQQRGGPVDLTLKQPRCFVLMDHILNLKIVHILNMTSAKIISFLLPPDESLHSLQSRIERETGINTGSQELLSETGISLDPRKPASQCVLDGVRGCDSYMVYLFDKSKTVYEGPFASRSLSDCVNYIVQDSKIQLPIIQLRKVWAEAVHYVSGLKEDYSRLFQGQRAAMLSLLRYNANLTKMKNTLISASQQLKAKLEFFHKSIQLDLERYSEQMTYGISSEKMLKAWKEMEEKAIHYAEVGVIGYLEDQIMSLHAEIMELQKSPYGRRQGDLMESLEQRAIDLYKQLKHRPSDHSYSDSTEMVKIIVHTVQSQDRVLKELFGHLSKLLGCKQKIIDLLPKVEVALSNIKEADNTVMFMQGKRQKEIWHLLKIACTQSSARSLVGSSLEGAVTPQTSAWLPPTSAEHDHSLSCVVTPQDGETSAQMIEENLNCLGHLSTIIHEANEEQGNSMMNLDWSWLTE
Method: as §1, §2

[13] = target: T13, INSRR (Homo sapiens, UniProt P14616); test: KinomeScan; type: binding; details: read-out: % Ctrl @ 10000 nM
T13 construct: host or cells: T7 phage grown in E. coli host derived from BL21
Method: as §1, §2

[14] = target: T14, IRAK3 (Homo sapiens, UniProt Q9Y616); test: KinomeScan; type: binding; details: read-out: % Ctrl @ 10000 nM
T14 construct: host or cells: T7 phage grown in E. coli host derived from BL21
T14 sequence (Q9Y616 whole entry): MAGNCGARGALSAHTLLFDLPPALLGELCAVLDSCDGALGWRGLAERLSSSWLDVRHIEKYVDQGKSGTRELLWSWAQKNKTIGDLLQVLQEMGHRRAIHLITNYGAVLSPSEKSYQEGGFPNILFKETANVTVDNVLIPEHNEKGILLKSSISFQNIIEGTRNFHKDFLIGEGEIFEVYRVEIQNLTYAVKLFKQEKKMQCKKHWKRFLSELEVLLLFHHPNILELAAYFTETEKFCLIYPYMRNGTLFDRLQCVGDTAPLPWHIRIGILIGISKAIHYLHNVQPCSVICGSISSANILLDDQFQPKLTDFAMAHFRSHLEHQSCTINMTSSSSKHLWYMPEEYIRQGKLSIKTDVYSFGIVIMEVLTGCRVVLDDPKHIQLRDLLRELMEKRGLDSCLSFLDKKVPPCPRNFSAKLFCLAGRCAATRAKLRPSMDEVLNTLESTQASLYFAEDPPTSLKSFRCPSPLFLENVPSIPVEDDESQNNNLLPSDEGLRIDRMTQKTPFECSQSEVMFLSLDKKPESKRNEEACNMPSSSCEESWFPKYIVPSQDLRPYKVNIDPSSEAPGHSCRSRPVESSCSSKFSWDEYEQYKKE
Method: as §1, §2

[15] = target: T15, PAK2 (Homo sapiens, UniProt Q13177); test: KinomeScan; type: binding; details: read-out: % Ctrl @ 10000 nM
T15 construct: host or cells: E. coli host derived from BL21, infected with T7 phage
Method: as §1, §2

[16] = target: T16, PAK4 (Homo sapiens, UniProt O96013); test: KinomeScan; type: binding; details: read-out: % Ctrl @ 10000 nM
T16 construct: host or cells: E. coli host derived from BL21, infected with T7 phage
Method: as §1, §2

[17] = target: T17, PKAC-beta (Homo sapiens, UniProt P22694); test: KinomeScan; type: binding; details: read-out: % Ctrl @ 10000 nM
T17 construct: host or cells: T7 phage in E. coli host derived from BL21
Method: as §1, §2

[18] = target: T18, PKN2 (Homo sapiens, UniProt Q16513); test: KinomeScan; type: binding; details: read-out: % Ctrl @ 10000 nM
T18 construct: host or cells: T7 phage in E. coli host derived from BL21
T18 sequence (Q16513 whole entry): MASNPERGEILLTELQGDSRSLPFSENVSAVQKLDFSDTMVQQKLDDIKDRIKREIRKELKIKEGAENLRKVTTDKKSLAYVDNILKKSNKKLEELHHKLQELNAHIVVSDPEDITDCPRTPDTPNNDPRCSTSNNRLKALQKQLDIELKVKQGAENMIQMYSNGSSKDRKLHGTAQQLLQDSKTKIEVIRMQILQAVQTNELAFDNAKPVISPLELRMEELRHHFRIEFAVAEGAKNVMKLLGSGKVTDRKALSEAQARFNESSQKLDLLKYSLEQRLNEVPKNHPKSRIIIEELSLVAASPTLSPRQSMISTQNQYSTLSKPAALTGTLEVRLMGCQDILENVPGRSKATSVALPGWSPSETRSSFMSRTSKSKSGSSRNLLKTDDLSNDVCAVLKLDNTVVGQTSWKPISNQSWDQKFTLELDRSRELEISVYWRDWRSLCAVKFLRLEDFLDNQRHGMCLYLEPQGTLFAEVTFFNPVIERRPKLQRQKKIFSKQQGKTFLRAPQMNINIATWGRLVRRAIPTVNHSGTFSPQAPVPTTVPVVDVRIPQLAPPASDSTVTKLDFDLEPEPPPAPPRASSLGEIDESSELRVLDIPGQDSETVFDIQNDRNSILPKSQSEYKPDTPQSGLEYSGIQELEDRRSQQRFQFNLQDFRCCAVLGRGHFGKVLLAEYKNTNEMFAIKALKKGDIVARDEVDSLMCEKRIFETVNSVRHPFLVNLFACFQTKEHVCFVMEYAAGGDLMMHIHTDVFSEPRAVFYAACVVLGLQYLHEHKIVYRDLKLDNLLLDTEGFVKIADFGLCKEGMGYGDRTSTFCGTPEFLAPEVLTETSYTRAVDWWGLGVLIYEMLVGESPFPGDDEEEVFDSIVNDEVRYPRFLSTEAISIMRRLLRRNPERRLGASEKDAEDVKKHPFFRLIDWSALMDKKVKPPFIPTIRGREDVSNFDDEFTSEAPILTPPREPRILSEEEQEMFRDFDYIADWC
Method: as §1, §2

[19] = target: T19, RPS6KA2(Kin.Dom.-2-C-terminal) (Homo sapiens, UniProt Q15349); test: KinomeScan; type: binding; details: read-out: % Ctrl @ 10000 nM
T19 construct: RPS6KA2(Kin.Dom.-2-C-terminal); host or cells: E. coli host derived from BL21, T7 phage display
Method: as §1, §2

[20] = target: T20, SgK085 (Homo sapiens, UniProt Q86YV6); test: KinomeScan; type: binding; details: read-out: % Ctrl @ 10000 nM
T20 construct: host or cells: T7 phage grown in E. coli (BL21-derived)
T20 sequence (Q86YV6 whole entry): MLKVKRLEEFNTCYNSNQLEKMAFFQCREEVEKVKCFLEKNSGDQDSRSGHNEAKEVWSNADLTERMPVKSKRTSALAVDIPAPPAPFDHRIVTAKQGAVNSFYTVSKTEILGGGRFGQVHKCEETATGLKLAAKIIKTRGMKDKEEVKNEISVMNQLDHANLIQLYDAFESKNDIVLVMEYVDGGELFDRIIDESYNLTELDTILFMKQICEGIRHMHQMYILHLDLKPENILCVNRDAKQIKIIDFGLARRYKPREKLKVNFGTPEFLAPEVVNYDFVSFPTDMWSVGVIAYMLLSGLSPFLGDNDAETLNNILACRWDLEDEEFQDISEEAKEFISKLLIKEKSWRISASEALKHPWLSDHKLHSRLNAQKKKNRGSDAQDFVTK
Method: as §1, §2

[21] = target: T21, WEE2 (Homo sapiens, UniProt P0C1S8); test: KinomeScan; type: binding; details: read-out: % Ctrl @ 10000 nM
T21 construct: host or cells: E. coli host derived from BL21, T7 phage
Method: as §1, §2

[22] = target: T22, YANK2 (Homo sapiens, UniProt Q9NY57); test: KinomeScan; type: binding; details: read-out: % Ctrl @ 10000 nM
T22 construct: host or cells: E. coli host derived from BL21, T7 phage
Method: as §1, §2

[23] = target: T23, YES (Homo sapiens, UniProt P07947); test: KinomeScan; type: binding; details: read-out: % Ctrl @ 10000 nM
T23 construct: host or cells: E. coli host derived from BL21, T7 phage
Method: as §1, §2

[24] = Acute toxicity (LD0, LD50); type: in vivo; details: both, mouse, in vivo, po, 7 days
Method: […]. The doses 500, 750, 1000 and 2000 mg/Kg were administered orally. Each group included 5 mice. […] The survived animals were autopsied for asserting the absorption of compound through g.i.t. The LD50 was determined according to the method described in Litchfield and Wilcoxon (J. Pharmacol. Exp. Ther. 1949, 96:99-113).

[25] = system: A549 human lung tumors; test: Evaluation of ED50 (lung section and tumor regression studies); type: in vivo, nude mice; details: Mus musculus, oral route
Method: ED50 values were evaluated based on the lung section and tumor regression studies.

[26] = target: hERG (Homo sapiens, UniProt Q12809); test: hERG Ikr (tail) current, whole cell patch-clamp in CHO cells; details: 10 μM
[27] = target: ERBB2 (Homo sapiens, UniProt P04626); test: KinomeScan; type: binding; parameters: purchased Ambit Biosciences Corp; host or cells: T7 phage in E. coli host derived from BL21; details: read-out: % Ctrl @ 10000 nM
Method: as §1, §2

[28] = target: ERBB4 (Homo sapiens, UniProt Q15303); test: KinomeScan; type: binding; parameters: purchased Ambit Biosciences Corp; host or cells: T7 phage in E. coli host derived from BL21; details: read-out: % Ctrl @ 10000 nM
Method: as §1, §2

Work on `C#Cc1cccc(Nc2ncnc3cc(OC)c(OCCCN4CCOCC4)cc23)c1` [NRC-2694, N-(3-ethynylphenyl)-7-methoxy-6-[3-(4-morpholinyl)propoxy]-4-quinazolinamine] yielded a remaining binding at 10 µM [1] of 37%, a remaining binding at 10 µM [2] of 61% and a remaining binding at 10 µM [3] of 100%. The remaining binding at 10 µM [4] was 4.4%, the remaining binding at 10 µM [5] was 100% and the remaining binding at 10 µM [6] was 78%. It also gave a remaining binding at 10 µM [7] of 56%, a remaining binding at 10 µM [8] of 34% and a remaining binding at 10 µM [9] of 56%. The remaining binding at 10 µM [10] was 0.95%, the remaining binding at 10 µM [11] was 12% and the remaining binding at 10 µM [12] was 41%. It also gave a remaining binding at 10 µM [13] of 79%, a remaining binding at 10 µM [14] of 25% and a remaining binding at 10 µM [15] of 67%. It also gave a remaining binding at 10 µM [16] of 80%, a remaining binding at 10 µM [17] of 88% and a remaining binding at 10 µM [18] of 31%. For the same compound, the remaining binding at 10 µM [19] was 78%, the remaining binding at 10 µM [20] was 84% and the remaining binding at 10 µM [21] was 53%. The remaining binding at 10 µM [22] was 68%, the remaining binding at 10 µM [23] was 41% and the LD0 [24] was 2000 mg/kg. For the same compound, the ED50 [25] was 6.3 mg/kg, the “inhibition of hERG current” value [26] was about 42% and the remaining binding at 10 µM [27] was 31%. For the same compound, the remaining binding at 10 µM [28] was 3.3%.

From patent publication US8921362B2, “6,7-dialkoxy quinazoline derivatives and methods of treating drug resistant and other tumors” (Natco Pharma Limited, priority 2008, dated 2014)
